Experimental data reported in patent US11130743B2, “Heterocyclic ligands of PAR1 and methods of use” (Marquette University, priority 2019, dated 2021).
In brackets after ≈: the same amount, converted by molar mass. Values belong to the compound of their own block, whether it stands above or below them.

Key:
[1] = stability in human liver microsomes; type: in vitro ADME; conditions: 1 h
human washed platelets = test: human platelet aggregation assay with PAR1/2 agonist SFLLRN-NH2; type: cell-based; conditions: parmodulins at 10 μM, SFLLRN-NH2 (5 μM)
Experimental: FIGS. 5A-5B depicts results of a human platelet aggregation assay of A) ML161 (10 μM, red trace) and B) NRD-21 (10 μM, red trace) in the presence of the PAR1/2 agonist SFLLRN-NH2 ([…]). Blue traces=DMSO.
Next, an assay was performed to measure the ability of NRD-21 to inhibit platelet aggregation. PAR1 is highly expressed in platelets, and its activation leads to aggregation and coagulation. The platelet aggregation assay was performed with ML161 and NRD-21. In both cases, human washed platelets were incubated with parmodulins at 10 μM, then the PAR1/2 agonist SFLLRN-NH2 (5 μM) was added. (FIG. 5).

human plasma stability = type: in vitro ADME; conditions: after 4 h in human plasma
Description: FIG. 8. Human plasma stability of ML161 (left) and NRD-21 (right). Points indicate the natural logarithm of the average concentration of compound remaining, with 3 replicates at each time point.

hepG2 = test: toxicity in a human cell line (hepG2); type: cell-based
PAR1 [2] = molecular target: T1, PAR1 (Homo sapiens, UniProt P25116); test: PAR1 (TFLLRN-NH2)-driven intracellular calcium mobilization (iCa2+) assay with Ea.hy926 cells; type: cell-based; conditions: for iCa2+ assay pIC50 / IC50: 5 μM TFLLRN-NH2, EA.hy926 cells, curves fitted to 3 wells per concentration; for inhibition at 10 µM: EA.hy 926, 10 μM compound, 5 μM TFLLRN-NH2, adherent EA.hy926 endothelial cells, n=4 wells, ± SEM, read-out: iCa2+ assay % Inhib; for IC50: read-out: iCa2+ assay pIC50 (converted)
T1 construct: endogenous in cells; host or cells: EA.hy926 endothelial cells
T1 sequence (P25116 22-425): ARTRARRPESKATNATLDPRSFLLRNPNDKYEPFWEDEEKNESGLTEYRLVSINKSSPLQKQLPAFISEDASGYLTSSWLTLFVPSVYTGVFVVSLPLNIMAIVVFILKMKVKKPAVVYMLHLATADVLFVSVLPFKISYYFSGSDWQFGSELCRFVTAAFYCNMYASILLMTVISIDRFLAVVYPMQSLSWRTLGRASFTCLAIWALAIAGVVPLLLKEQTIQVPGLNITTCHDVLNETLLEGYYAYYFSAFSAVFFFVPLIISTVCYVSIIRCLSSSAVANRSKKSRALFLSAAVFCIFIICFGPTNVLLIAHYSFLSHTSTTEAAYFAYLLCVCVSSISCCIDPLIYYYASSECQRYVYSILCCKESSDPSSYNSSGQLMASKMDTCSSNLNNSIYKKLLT
Experimental: FIGS. 1A-1D depicts concentration-response curves for PAR1 antagonists in the TFLLRN-NH2-mediated (5 μM) intracellular calcium mobilization (iCa^2+) assay with Ea.hy926 cells: A) 35 (VAK-7), B) 39 (NRD-23), C) 9 (NRD-25), D) 38 (NRD-21). Cells were loaded with the calcium-binding dye Fluo-4/AM, and changes in calcium concentration were measured with a plate reader.
Our interest in measuring the effects of parmodulins in endothelial cells led us to develop a protocol for an […] calcium mobilization (iCa^2+) assay using adherent Ea.hy926 cells in 96 well plates.^24 This assay also offers higher throughput and lower variability than the platelet P-selectin assay, so we have utilized it as our primary assay for our ongoing studies. Compounds were screened in 96 well plates at a concentration of 10 μM, using the PAR1 tethered ligand peptide TFLLRN (5 μM) as agonist.
The intracellular calcium mobilization assay was performed with Ea.hy926 cells according to our published protocol (Bioorg. Med. Chem. 2018, 9, 2514-2529), using TFLLRN-NH2 as PAR1 agonist.
^aAssays were performed with adherent EA.hy926 endothelial cells. % Inhibition was measured at 10 μM with 5 μM TFLLRN-NH2 and n=4 wells, unless otherwise noted, with standard error of the mean (SEM) provided. pIC50s (-logIC50S) were estimated from curves fitted to measurements on 3 separate wells for each concentration, using 4-variable non-linear regression in GraphPad Prism v.6.

[3] = kinetic aqueous solubility assay; type: physicochemical; conditions: aqueous solution with 2.5% DMSO
[4] = test system: tissue factor (TF) expression; test: qPCR assay of TNF-α induced tissue factor (TF) expression in HUVEC; type: cell-based, human; conditions: 10 μM inhibitor, TNF-α 25 ng/mL, mRNA at 4 h
Experimental: FIG. 6 is a graph depicting results of a qPCR assay (n=3) measuring the inhibition of TNF-α (25 ng/mL) induced tissue factor (TF) expression in HUVEC after treatment with ML161 and NRD-21 (10 μM). Inhibitors were added at t=0, TNF-α was added at t=1 h, and mRNA was measured at t=4 h.
To this end, we performed a qPCR assay measuring the expression of tissue factor (TF) in endothelial cells (HUVEC) in response to the inflammatory cytokine Tumor Necrosis Factor-alpha (TNF-α). TF has been long established to mediate the pro-inflammatory and pro-coagulant effects^27 of TNF-α^28,29 and endotoxins,^30 and unnatural TF expression is therefore the driver of disseminated intravascular coagulation (DIC) observed under conditions of cancer or sepsis.^31 We measured the level of TF mRNA 4 h after treatment with ML161 or NRD-21 followed by the addition of TNF-α (FIG. 6).

[5] = molecular target: T2, serotonin transporter (SERT) (Homo sapiens, UniProt P31645); test: PDSP off-target radioligand binding, SERT
T2 construct: Psychoactive Drug Screening Program (PDSP)

mouse plasma stability = type: in vitro ADME; conditions: after 4 h in mouse plasma
Experimental: The term “plasma stability” as used herein refers to the ability of the compound to remain intact after incubation with plasma, for example, mouse plasma or human plasma, after a certain period of time. For example, the compounds of the present invention (e.g., compounds of formula I) have a greater half-life for plasma stability than prior compounds (for example, greater half-life stability than ML161). Methods of determining the plasma stability of the compounds are known in the art. For example, one can measure the amount of compound remaining by HPLC after a 4 h incubation in plasma, or if multiple time points are taken, a half-life for plasma stability can be calculated. As described in the Examples and Table 5, the % compound remaining after 4 h-incubation in mouse plasma is substantially better than the compounds of the prior art (e.g., ML161). For example, increased plasma stability can be at least 20% of the compound remains after 4 hour incubation in plasma, alternatively at least 30% of the compound remains after 4 hour incubation in plasma.
We measured its stability and a number of parameters relevant to its use as an in vivo probe (Table 5, FIG. 7). Importantly, NRD-21 is much more plasma stable than ML161. After 4 h in mouse plasma, 32% of NRD-21 remained, while ML161 was less than 1%.

[6] = molecular target: T3, peripheral benzodiazepine receptor (PBR) (Rattus norvegicus, UniProt P16257); test: PDSP off-target radioligand binding, PBR; conditions: PDSP profiling
T3 construct: Psychoactive Drug Screening Program (PDSP)

PAR1 [7] = molecular target: T1, PAR1; conditions: from reference 24; cited from earlier work
[8] = species not stated in b8; mouse plasma; reference 20; cited from earlier work
[9] = test system: necrosis of coronary tissue; conditions: mouse MI model, reference 23; cited from earlier work

T2 sequence (P31645 whole entry, species assumed): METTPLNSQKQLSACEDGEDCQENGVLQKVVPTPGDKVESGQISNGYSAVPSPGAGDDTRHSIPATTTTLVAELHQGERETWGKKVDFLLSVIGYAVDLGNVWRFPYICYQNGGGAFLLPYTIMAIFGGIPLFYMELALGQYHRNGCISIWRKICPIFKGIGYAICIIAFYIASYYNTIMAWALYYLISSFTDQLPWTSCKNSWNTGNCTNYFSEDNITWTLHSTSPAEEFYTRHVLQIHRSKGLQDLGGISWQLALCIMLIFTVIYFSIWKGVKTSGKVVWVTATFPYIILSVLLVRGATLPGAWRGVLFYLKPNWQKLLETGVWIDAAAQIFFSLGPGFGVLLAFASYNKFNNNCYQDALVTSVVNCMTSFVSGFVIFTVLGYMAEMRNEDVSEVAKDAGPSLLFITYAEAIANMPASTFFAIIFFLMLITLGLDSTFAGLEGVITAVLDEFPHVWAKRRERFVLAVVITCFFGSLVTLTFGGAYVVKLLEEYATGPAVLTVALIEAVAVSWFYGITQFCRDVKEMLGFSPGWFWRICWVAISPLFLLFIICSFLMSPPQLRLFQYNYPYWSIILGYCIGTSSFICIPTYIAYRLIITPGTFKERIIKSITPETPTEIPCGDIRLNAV

stability in the presence of human liver microsomes [1]: no apparent degradation after 1 h
% compound remaining in human plasma (human plasma stability): 97%
iCa2+ assay pIC50 (PAR1 [2]): 6.3 ± 0.1
inhibition at 10 µM (PAR1 [2]): 59 ± 13%
solubility [3]: 17 µM (≈ 6.57 µg/mL)
effect on SERT in radioligand binding profiling [5]: activation
% compound remaining in mouse plasma (mouse plasma stability): 32%
effect on radioligand binding to PBR [6]: inhibition of binding
SMILES: O=C(Nc1cccc(NC(=O)c2ccccc2Br)c1)c1cnco1 [Compound 5, N-[3-(2-bromobenzamido)phenyl]-1,3-oxazole-5-carboxamide]
inhibition of platelet aggregation (human washed platelets): Complete inhibition of platelet aggregation
toxicity in hepG2 (hepG2): no measurable toxicity
mode of action at PAR1 (PAR1 [2]): selective negative allosteric modulator of PAR1
TF mRNA level after TNF-α [4]: dropping TF RNA levels to below baseline levels

iCa2+ assay pIC50 (PAR1 [2]): 6.4 ± 0.1
inhibition at 10 µM (PAR1 [2]): 82 ± 1%
SMILES: O=C(Nc1cccc(NC(=O)c2ccccc2Br)c1)c1cocn1 [Compound 6, N-[3-(2-bromobenzamido)phenyl]-1,3-oxazole-4-carboxamide]

IC50 (PAR1 [2]): 398 nM
inhibition at 10 µM (PAR1 [2]): 66 ± 13%
SMILES: O=C(Nc1cccc(NC(=O)c2ccccc2Cl)c1)c1cnco1 [Compound 7, N-[3-(2-chlorobenzamido)phenyl]-1,3-oxazole-5-carboxamide]

IC50 (PAR1 [2]): 93.3 nM
inhibition at 10 µM (PAR1 [2]): 56 ± 6%
SMILES: O=C(Nc1cccc(NC(=O)c2ccccc2Br)c1)c1cncs1 [Compound 8, N-[3-(2-bromobenzamido)phenyl]-1,3-thiazole-5-carboxamide]

IC50 (PAR1 [2]): 40.7 nM
inhibition at 10 µM (PAR1 [2]): 97 ± 13%
SMILES: O=C(Nc1cccc(NC(=O)c2ccccc2Br)c1)c1ccoc1 [Compound 9, N-[3-(2-bromobenzamido)phenyl]furan-3-carboxamide]

inhibition at 10 µM (PAR1 [2]): 42 ± 3%
SMILES: O=C(Nc1cccc(NC(=O)C2CCCO2)c1)c1ccccc1Br (centres unmarked) [Compound 10, N-[3-(2-bromobenzamido)phenyl]oxolane-2-carboxamide]

inhibition at 10 µM (PAR1 [2]): 44 ± 2%
SMILES: O=C(Nc1cccc(NC(=O)C2CCOC2)c1)c1ccccc1Br (centres unmarked) [Compound 11, N-[3-(2-bromobenzamido)phenyl]oxolane-3-carboxamide]

SMILES: CCCC(=O)Nc1cccc(NC(=O)c2ccccc2Br)c1 [ML161, reference compound]
stability in the presence of human liver microsomes [1]: excellent stability
inhibition of platelet aggregation (human washed platelets): Complete inhibition of platelet aggregation
mode of action at PAR1 signaling via Gq (PAR1 [7]): selective, reversible, and allosteric inhibitors (negative allosteric modulators)
% compound remaining in human plasma (human plasma stability): 79%
TF mRNA level after TNF-α [4]: blocked the ˜3-fold increase in TF expression
stability in plasma [8]: low stability in plasma
minimizing necrosis of coronary tissue [9]: highly effective at minimizing necrosis of coronary tissue
effect on SERT in radioligand binding profiling [5]: activation
% compound remaining in mouse plasma (mouse plasma stability): less than 1%
effect on radioligand binding to PBR [6]: inhibition of binding
